The text below walks through data of patent publication US20220057378A1, “MICROBIAL MICROFLUIDIC BIOSENSOR” (priority 2015, published 2022).

Assay [1] has as its system pRS18. Briefly: SVM classification of GFP sensor responses (toxin / no toxin). Format: cell-based, E. coli. The note with it: from classification accuracy and ROC curves; plasmid pRS18. The text has this:
(§1) Computational models to determine the threshold of detection for specific sensors based on models of experimental GFP responses. We used machine learning techniques to determine the relationships between the GFP output signal and the presence of a toxin. We have created a database containing the collected sensor response data. We have quantified the GFP threshold of detection for each sensor construct. We have constructed Receiver Operating Characteristic (ROC) curves for each sensor to achieve robust sensing. We constructed machine learning models capable of inferring the relationships between the GFP sensor responses and the presence or absence of a toxin at a given concentration. […] The optimal meta-parameters of the SVM classifier were determined by applying a 5-crossvalidation during the training phase (2). In order to have a reliable estimate of the performance of the model when deployed in real environments, we measured its performance over a set of samples (test patterns) not seen during the training phase. The SVM's performance was determined by the percentage of test samples correctly labeled as toxin/no toxin (classification accuracy). […]
(§2) In order to have a reliable estimate of the performance of the model when deployed in real environments, we measured its performance over a set of samples (test patterns) not seen during the training phase. […]

In assay [2] the test system is pZA47a. Described as above. The format is cell-based, E. coli. The note with it: from classification accuracy and ROC curves.
Source text: as §1, §2

The test system of assay [3] is As7 GFP construct. Briefly: arsenic detection with the GFP construct in a microfluidic device. Format: cell-based. The procedure: (§3) For comparison, the arsenic concentration used for testing the GFP construct in a microfluidic device was 130 nM, or 0.13 μM. Thus, replacing GFP with Lux promises to greatly increase the sensitivity of the biosensor.
(§4) The arsenic sensor construct As7 was modified to replace the gfp gene with the luxCDABE operon, and relative induction (fluorescence or luminescence) of the two constructs was tested side-by-side using a Tecan Infinite M200 Pro plate reader (see FIG. 38). […] In contrast, the GFP construct was sensitive to arsenic only above a concentration of 26 nM. For comparison, we were able to detect an arsenic concentration of 130 nM using the GFP construct in a microfluidic device. Thus, replacing GFP with Lux promises to greatly increase the sensitivity of the biosensor.

Assay [4] concerns As7 with luxCDABE operon. Briefly: plate reader induction of arsenic sensor, Lux reporter. The format is cell-based. The note with it: Tecan plate reader. The procedure:
Luminescent reporters. […] In FIG. 8, we compare these reporters driven by an arsenic-responsive promoter, where the induction response was measured side-by-side using a Tecan plate reader.
as §3, §4

In assay [5] the test system is E. coli MG1655/Cd1. Briefly: on-chip time-lapse induction of promoter construct (GFP, gill chip). Format: cell-based.
Method: (§6) For on-chip induction experiments, strains were loaded into the device and grown in M9 minimal medium with 0.4% glucose and 50 μg/ml spectinomycin (for plasmid maintenance) for 2 days in the absence of toxin. Cells were imaged under 4× brightfield and GFP fluorescence filters on an Olympus IX-81 microscope every 2 min for 6 h under these non-inducing conditions to generate a fluorescence baseline. The toxin was then introduced to induce GFP expression and the cells were imaged every 2 min for 6 h.
(§7) To determine the response to toxin induction, the raw fluorescence images before and after induction were compared. The image stacks were analyzed using a custom ImageJ script to measure the average GFP signal over time for each cell trap. Any linear trend in the uninduced fluorescence data due to cell growth was subtracted from the data. In this manner, the dynamic signal-to-noise ratio (SNR) was calculated as: (current fluorescence−mean uninduced fluorescence)/(standard deviation of uninduced fluorescence).
(§8) This microfluidic platform was then used to measure the response of several toxin responsive promoter constructs identified from the literature and synthesized by Transcriptic. […] Note that SNR values greater than 2 indicate a significant response.
Assay [6] relates to E. coli MG1655/Hg3.
Method: as §6, §7, §8
The subject of assay [7] is E. coli MG1655/Cu1. Briefly: on-chip time-lapse induction of promoter construct (GFP, gill chip). The format is cell-based.
Method: as §6, §7, §8
Assay [8] deals with E. coli MG1655/Pb8. Briefly: 18-strain chip induction. The format is cell-based. To be noted: Zn6, Pb7, Pb8 in descending magnitude. The text has this:
(§5) In an embodiment herein, the toxin response data across 18 unique sensing strains were also collected using a new chip design that houses 16 E. coli strains and 2 B. subtilis strains. The B. subtilis NCIB 3610/Amm3 construct is a “lights-off” sensor, meaning that GFP production drops when ammonium is introduced, following a slight increase due to faster growth on this preferred nitrogen source. […] By combining these sensor responses, we can identify cobalt by the unique response of Pb7 alone and lead by the unique combination of Zn6, Pb7, and Pb8 responses.

Assay [9] concerns E. coli MG1655/Pb7. Briefly: 18-strain chip induction. The format is cell-based.
Source text: as §5

The test system of assay [10] is E. coli MG1655/Zn6. Briefly: 18-strain chip induction. The format is cell-based. To be noted: Zn6, Pb7, Pb8 in descending magnitude.
Source text: as §5

Consider `[As]` [Arsenic], for which the threshold of detection in assay [1] worked out at 0.2 µM; in assay [2], 0.1 µM. In [3], the “arsenic concentration detected, GFP construct in microfluidic device” value amounted to 130 nM. For the same compound, the “arsenic concentration detected, Lux construct” value in assay [4] came out at 0.2 nM.
For the compound `[Cd]` [Cadmium], the “SNR after 6 h” value in assay [5] (0.04 μM cadmium, 6 h induction, SNR > 2 = significant response) came out at 17. Also, the “Concentration Sensed in Microfluidic Device” value (“Concentration Sensed” below) in assay [5] (cadC/pcadC from S. aureus plasmid, native RBS) amounted to 0.04 µM.
With Mercury, in assay [6] (0.1 μM mercury, 6 h induction, SNR > 2 = significant response), the “SNR after 6 h” value stood at 20. The “Concentration Sensed” value in [6] (merR/pmerR from E. coli plasmid, synthetic RBS) was found to be 0.1 µM.
With `[Cu]` [Copper], in [7] (25 μM copper, 6 h induction, SNR > 2 = significant response), the “SNR after 6 h” value is reported as 65. Besides, the “Concentration Sensed” value in assay [7] (cueR/pcopA from E. coli genome, native RBS) came out at 25 µM.
As to `[Pb]` [Lead], in assay [8], the “GFP response of strain Pb8” value was “respond sensitively”. In addition, in [9], the “GFP response of strain Pb7” value is listed as “respond sensitively”. For the same compound, the “GFP response of strain Zn6” value in [10] is “respond sensitively”.
